Data as given in patent US12404285B2, “KRAS G12D proteolysis targeting chimeras” (PAQ Therapeutics Inc., priority 2022, dated 2025).

Target: T1, KRAS (G12D)-HiBit in AsPc-1-KRAS (G12D)-HiBit-KI cell (Homo sapiens, UniProt P01116, G12D)
T1 construct: host or cells: AsPc-1-KRAS (G12D)-HiBit-KI cells (knock-in line)
Assay: G12D HiBit assay
Format: cell-based
Settings: 24 hours compound treatment, absolute DC50, read-out: Average PHA DC50
Procedure: Day 1. Prepared the culture medium for AsPc-1-KRAS (G12D)-HiBit-KI cell (Pharmaron) using RPMI 1640 medium (Gibco, 11875093) with 10% FBS (Gibco, 10099141C) and 1% Penicillin-Streptomycin Liquid (Solarbio, P1400). Cultivated cells in T-75 flasks in a cell culture incubator (Thermo, Model: 371) at 37° C., 5% CO2. Allowed cells to reach approximately 80% confluence before splitting. Rinsed cultivated cells in T-75 flasks with 5 mL PBS (Solarbio, P1020-500). Aspirated off PBS, added 1.5 mL trypsin (Invitrogen, #25300), and incubated at 37° C. for approximately 5 minutes or until the cells detached. Inactivated trypsin by adding excessive serum containing medium. Harvested the cells from flask into cell culture medium and counted the cell number. Seeded AsPc-1-KRAS (G12D)-HiBit-KI cell into 384-well plate (Corning, 3570) (cell density: 5×10^3 cells/well in 50 μL medium) in RPMI 1640 medium and incubated overnight at 37° C. and 5% CO2.
Day 2. Test compounds were dissolved at 0.3 mM in DMSO (Solarbio, D8371) as stock solution. Transferred 45 μL of stock solution to a 384-well plate (Labcyte, 001-14555). Performed 3-fold, 10-points dilution via transferring 15 μL compound into 30 μL DMSO by using TECAN liquid handler (TECAN, Freedom EVO200). The compound plates were spin at room temperature at 1,000 RPM for 1 minute (Eppendorf, 5810R). Transferred 50 nL of diluted compounds from compound source plate into the cell plate by Echo (Labcyte, 550) to achieve final concentrations of 300 nM, 100 nM, 33.3 nM, 11.1 nM, 3.7 nM, 1.23 nM, 0.41 nM, 0.14 nM, 0.046 nM and 0.015 nM, then mixed the cell plate on a plate shaker (Yoning, WZ-4) for 15 seconds at 900 rpm. After compound treatment for 24 hours, removed the plate from incubators and equilibrated at room temperature for 15 minutes. Prepared the HiBit reagent (Promega, N3040) by mixing 10 mL of Nano-Glo®-HiBiT Lytic Buffer with 200 μL of Nano-Glo®-HiBiT Lytic Substrate and 100 μL of LgBiT Protein. Added 20 μL of HiBit reagent into each well of the cell plate and spun the plates at room temperature at 1,000 RPM for 1 minute. Then shook the plates at 600 RPM at room temperature for 20 minutes using a plate shaker (Yoning, WZ-4), and read the luminescence by EnVision (PerkinElmer, 2105-0020).
The inhibition activity was calculated using the following formula: HiBit-G12D level (%)=100%×[Luminescence(Sample)/Mean of Luminescence (HC)] where HC (high control) is obtained from cells treated with 0.1% DMSO only.
Absolute DC50 was calculated by fitting the curve using GraphPad Prism v8.0.2 (analyis 263): Y=Bottom+(100−Bottom)/(1+10^(Log AbsoluteIC50−X)*HillSlope+log((100−Bottom)/(50−Bottom)−1)))
The data are reported in Table 3, wherein “+++”=DC50 less than 100 nM, “++”=DC50 greater than or equal to 100 nM and less than 300 nM; “+”=DC50 greater than or equal to 300 nM.

T1 sequence (P01116 1-188 isoform P01116-2 G12D): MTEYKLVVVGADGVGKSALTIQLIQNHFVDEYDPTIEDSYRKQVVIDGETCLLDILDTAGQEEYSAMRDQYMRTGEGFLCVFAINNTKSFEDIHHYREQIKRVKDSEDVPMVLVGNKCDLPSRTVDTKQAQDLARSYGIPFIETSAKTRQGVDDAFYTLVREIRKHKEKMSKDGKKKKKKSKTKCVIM

Row | SMILES | DC50
1 | C#Cc1c(F)ccc2cccc(-c3ncc4c(N5CC6CCC(C5)N6)nc(OC[C@@]56CCCN5[C@H](COC(=O)N5CCC(COC7CN(Cc8cccc9c8n(C)c(=O)n9C8CCC(=O)NC8=O)C7)CC5)CC6)nc4c3F)c12 (stereo partly drawn) [Compound 63, [(3S,8S)-8-[[4-(3,8-diazabicyclo[3.2.1]octan-3-yl)-7-(8-ethynyl-7-fluoro-1-naphthyl)-8-fluoro-pyrido[4,3-d]pyrimidin-2-yl]oxymethyl]-1,2,3,5,6,7-hexahydropyrrolizin-3-yl]methyl4-[[1-[[1-(2,6-dioxo-3-piperidyl)-3-methyl-2-oxo-benzimidazol-4-yl]methyl]azetidin-3-yl]oxymethyl]piperidine-1-carboxylate] | 100 to 300 nM
2 | C#Cc1c(F)ccc2cccc(-c3ncc4c(N5CC6CCC(C5)N6)nc(OC[C@@]56CCCN5[C@H](COC(=O)N5CCN(C7CCN(Cc8cccc9c8n(C)c(=O)n9C8CCC(=O)NC8=O)CC7)CC5)CC6)nc4c3F)c12 (stereo partly drawn) [Compound 64, [(3S,8S)-8-[[4-(3,8-Diazabicyclo[3.2.1]octan-3-yl)-7-(8-ethynyl-7-fluoro-1-naphthyl)-8-fluoro-pyrido[4,3-d]pyrimidin-2-yl]oxymethyl]-1,2,3,5,6,7-hexahydropyrrolizin-3-yl]methyl 4-[1-[[1-(2,6-dioxo-3-piperidyl)-3-methyl-2-oxo-benzimidazol-4-yl]methyl]-4-piperidyl]piperazine-1-carboxylate] | < 100 nM
3 | C#Cc1c(F)ccc2cccc(-c3ncc4c(N5CC6CCC(C5)N6)nc(OC[C@@]56CCCN5[C@H](COC(=O)N5CCC(N7CCC(Cc8cccc9c8n(C)c(=O)n9C8CCC(=O)NC8=O)CC7)CC5)CC6)nc4c3F)c12 (stereo partly drawn) [Compound 65, [(3S,8S)-8-[[4-(3,8-Diazabicyclo[3.2.1]octan-3-yl)-7-(8-ethynyl-7-fluoro-1-naphthyl)-8-fluoro-pyrido[4,3-d]pyrimidin-2-yl]oxymethyl]-1,2,3,5,6,7-hexahydropyrrolizin-3-yl]methyl 4-[4-[[1-(2,6-dioxo-3-piperidyl)-3-methyl-2-oxo-benzimidazol-4-yl]methyl]-1-piperidyl]piperidine-1-carboxylate] | 100 to 300 nM
4 | C#Cc1c(F)ccc2cccc(-c3ncc4c(N5CC6CCC(C5)N6)nc(OC[C@@]56CCCN5[C@H](COC(=O)N5CCC7(CC5)CC(CCc5ccc8c(c5)n(C)c(=O)n8C5CCC(=O)NC5=O)C7)CC6)nc4c3F)c12 (some centres unmarked) [Compound 67] | < 100 nM
5 | C#Cc1c(F)ccc2cccc(-c3ncc4c(N5CC6CCC(C5)N6)nc(OC[C@@]56CCCN5[C@H](COC(=O)N5CCC(CCC7CCN(Cc8ccc9c(c8)n(C)c(=O)n9C8CCC(=O)NC8=O)CC7)CC5)CC6)nc4c3F)c12 (some centres unmarked) [Compound 69] | < 100 nM
6 | C#Cc1c(F)ccc2cccc(-c3ncc4c(N5CC6CCC(C5)N6)nc(OC[C@@]56CCCN5[C@H](COC(=O)N5CCC(C7CCN(c8ccc9c(c8)n(C)c(=O)n9C8CCC(=O)NC8=O)CC7)CC5)CC6)nc4c3F)c12 (some centres unmarked) [Compound 70] | ≥ 300 nM
7 | C#Cc1c(F)ccc2cccc(-c3ncc4c(N5CC6CCC(C5)N6)nc(OC[C@@]56CCCN5[C@H](COC(=O)N5CCC(COC7CN(Cc8ccc9c(c8)n(C)c(=O)n9C8CCC(=O)NC8=O)C7)CC5)CC6)nc4c3F)c12 (some centres unmarked) [Compound 73] | < 100 nM
8 | C#Cc1c(F)ccc2cccc(-c3ncc4c(N5CC6CCC(C5)N6)nc(OC[C@]56CCCN5[C@@H](COC(=O)N5CCC(CC7CCN(Cc8cccc9c8n(C)c(=O)n9C8CCC(=O)NC8=O)CC7)CC5)CC6)nc4c3F)c12 (some centres unmarked) [Compound 77] | 100 to 300 nM
9 | C#Cc1c(F)ccc2cccc(-c3ncc4c(N5CC6CCC(C5)N6)nc(OC[C@@]56CCCN5[C@H](COC(=O)N5CC[C@H](CN7CCC(c8ccc9c(c8)n(C)c(=O)n9C8CCC(=O)NC8=O)CC7)C5)CC6)nc4c3F)c12 (some centres unmarked) [Compound 80] | < 100 nM

Other lines, results leading:

Row | DC50 | SMILES
10 | < 100 nM | C#Cc1c(F)ccc2cccc(-c3ncc4c(N5CC6CCC(C5)N6)nc(OC[C@@]56CCCN5[C@H](COC(=O)N5CCC(OCC7CCN(Cc8cccc9c8n(C)c(=O)n9C8CCC(=O)NC8=O)CC7)CC5)CC6)nc4c3F)c12 (stereo partly drawn) [Compound 62, [(3S,8S)-8-[[4-(3,8-Diazabicyclo[3.2.1]octan-3-yl)-7-(8-ethynyl-7-fluoro-1-naphthyl) 8-fluoro-pyrido[4,3-d]pyrimidin-2-yl]oxymethyl]-1,2,3,5,6,7-hexahydropyrrolizin-3-yl]methyl4-[[1-[[1-(2,6-dioxo-3-piperidyl)-3-methyl-2-oxo-benzimidazol-4-yl]methyl]-4-piperidyl]methoxy]piperidine-1-carboxylate]
11 | < 100 nM | C#Cc1c(F)ccc2cccc(-c3ncc4c(N5CC6CCC(C5)N6)nc(OC[C@@]56CCCN5[C@H](COC(=O)N5CCC(N7CCC(Oc8cccc9c8n(C)c(=O)n9C8CCC(=O)NC8=O)CC7)CC5)CC6)nc4c3F)c12 (some centres unmarked) [Compound 66]
12 | < 100 nM | C#Cc1c(F)ccc2cccc(-c3ncc4c(N5CC6CCC(C5)N6)nc(OC[C@@]56CCCN5[C@H](COC(=O)N5CCC(COC7CCN(Cc8ccc9c(c8)n(C)c(=O)n9C8CCC(=O)NC8=O)CC7)CC5)CC6)nc4c3F)c12 (some centres unmarked) [Compound 68]
13 | < 100 nM | C#Cc1c(F)ccc2cccc(-c3ncc4c(N5CC6CCC(C5)N6)nc(OC[C@@]56CCCN5[C@H](COC(=O)N5CCC(OCC7CCN(Cc8ccc9c(c8)n(C)c(=O)n9C8CCC(=O)NC8=O)CC7)CC5)CC6)nc4c3F)c12 (some centres unmarked) [Compound 71]
14 | 100 to 300 nM | C#Cc1c(F)ccc2cccc(-c3ncc4c(N5CC6CCC(C5)N6)nc(OC[C@@]56CCCN5[C@H](COC(=O)N5CCN(C7CCN(Cc8ccc9c(c8)n(C)c(=O)n9C8CCC(=O)NC8=O)CC7)CC5)CC6)nc4c3F)c12 (some centres unmarked) [Compound 72]
15 | < 100 nM | C#Cc1c(F)ccc2cccc(-c3ncc4c(N5CC6CCC(C5)N6)nc(OC[C@@]56CCCN5[C@H](COC(=O)N5CCC(OC7CN(Cc8ccc9c(c8)n(C)c(=O)n9C8CCC(=O)NC8=O)C7)CC5)CC6)nc4c3F)c12 (some centres unmarked) [Compound 74]
16 | 100 to 300 nM | C#Cc1c(F)ccc2cccc(-c3ncc4c(N5CC6CCC(C5)N6)nc(OC[C@@]56CCCN5[C@H](COC(=O)N5CCC(N7CCC(Cc8ccc9c(c8)n(C)c(=O)n9C8CCC(=O)NC8=O)CC7)CC5)CC6)nc4c3F)c12 (some centres unmarked) [Compound 75]
17 | < 100 nM | C#Cc1c(F)ccc2cccc(-c3ncc4c(N5CC6CCC(C5)N6)nc(OC[C@]56CCCN5[C@@H](COC(=O)N5CCC(CN7CCC(c8ccc9c(c8)n(C)c(=O)n9C8CCC(=O)NC8=O)CC7)CC5)CC6)nc4c3F)c12 (some centres unmarked) [Compound 76]
18 | < 100 nM | C#Cc1c(F)ccc2cccc(-c3ncc4c(N5CC6CCC(C5)N6)nc(OC[C@@]56CCCN5[C@H](COC(=O)N5CC(CN7CCC(Oc8cccc9c8n(C)c(=O)n9C8CCC(=O)NC8=O)CC7)C5)CC6)nc4c3F)c12 (some centres unmarked) [Compound 78]
19 | ≥ 300 nM | C#Cc1c(F)ccc2cccc(-c3ncc4c(N5CC6CCC(C5)N6)nc(OC[C@@]56CCCN5[C@H](COC(=O)N5CCC(CN7CCC(c8cccc9c8n(C)c(=O)n9C8CCC(=O)N(C)C8=O)CC7)CC5)CC6)nc4c3F)c12 (some centres unmarked) [Compound 79]
20 | < 100 nM | C#Cc1c(F)ccc2cccc(-c3ncc4c(N5CC6CCC(C5)N6)nc(OC[C@@]56CCCN5[C@H](COC(=O)N5CC[C@@H](CN7CCC(c8ccc9c(c8)n(C)c(=O)n9C8CCC(=O)NC8=O)CC7)C5)CC6)nc4c3F)c12 (stereo partly drawn) [Compound 81, [(3S,8S)-8-[[4-(3,8-Diazabicyclo[3.2.1]octan-3-yl)-7-(8-ethynyl-7-fluoro-1-naphthyl)-8-fluoro-pyrido[4,3-d]pyrimidin-2-yl]oxymethyl]-1,2,3,5,6,7-hexahydropyrrolizin-3-yl]methyl (3S)-3-[[4-[1-(2,6-dioxo-3-piperidyl)-3-methyl-2-oxo-benzimidazol-5-yl]-1-piperidyl]methyl]pyrrolidine-1-carboxylate]
